Source: patent publication US20170035845A1, “Compositions and Methods for Inhibiting Pro-Inflammatory Cytokine Gene Expression” (The Regents of the University of California, priority 2015, published 2017)

What was measured:
THP-1 macrophages = experiment: Cytokine secretion ELISA, LPS-stimulated differentiated THP-1 cells; format: cell-based, human
Experimental: THP-1 monocytes (ATCC, Manassas, Va.) were cultured in RPMI 1640+10% FBS and penicillin/streptomycin (P/S). THP-1 Dual cells (Invivogen, San Diego, Calif.) which express the NF-κB reporter, secreted embryonic alkaline phosphatase (SEAP), were grown in RPMI 1640+10% HI-FBS and antibiotics. THP-1 cell differentiation was induced by treatment of cells (˜3.3×10^5 cells/ml) with 100 nM PMA and cultured for 2 days. HEK-Blue™ hTLR9 cells (Invivogen) were grown in DMEM medium containing 10% HI-FBS, P/S and normocin. Cells were cultured at 37° C. in 5% CO2. Cytokine assays. PMA-differentiated THP-1 cells (˜8×10^5 cells) cultured in 6-well plates were washed twice with complete medium and grown in fresh medium containing 1% FBS for 24 hours. Cells were washed twice with fresh medium and incubated for 2 hours prior to further manipulation. Cells were stimulated with 100 ng/ml LPS in the presence or absence of 10 μg/ml RTD-1 or vehicle (0.01% acetic acid) for 2 hours. In some experiments, cells were first incubated for 1 hour with 10 μg/ml of marimastat or vehicle (DMSO), after which LPS and/or RTD-1 were added and incubated for 2 hours as above. Peripheral blood CD14+ monocytes (Lonza, Walkersville, Md.) were thawed, rinsed with RPMI 1640 containing 10% HI FBS, P/S and normocin and then resuspended in RPMI 1640 containing 1% HI FBS plus antibiotics as above (10^6 cells/nil) for 2 hours. The cells were then stimulated for 4 hours as described in the legend. Medium was collected, clarified by centrifugation first at 250×g for 8 minutes and then at 5000×g for 5 minutes. TNF-α, IL-1β and IL-8 were quantified by ELISA (Life Technologies, Carlsbad, Calif.).

NF-κB = NF-κB activity assay (SEAP reporter, Quantiblue) in THP-1 Dual cells; format: cell-based, human
Experimental: One ml aliquots of PMA-differentiated THP-1 Dual cells (3.3×10^5 cells/nil) in 24 well tissue culture plates were starved for 1 day in complete medium with 1% HI FBS as described above. For experiments with S7 peptide, 0.5 ml cultures in 48 well plates were used. Fresh medium containing 1% HI FBS was added to the cells and after 2 hours cells were stimulated with 100 ng/ml LPS or 25 ng/ml Pam3CSK4 in the presence of RTD-1 or 0.01% acetic acid (HOAc, vehicle). In some experiments cells were pre-incubated with marimastat, Ly294002 or vehicle for 1 hour prior to addition of LPS and/or RTD-1 (SEQ ID NO. 1). Following overnight incubation, medium was clarified by centrifugation and SEAP activity was determined using Quantiblue reagent at 37° C. and measurement of absorbance at 625 nm. To test the effect of RTD-1 on TLR9-dependent NF-κB activation, 2×10^5 HEK-Blue™ hTLR9 cells/ml were cultured for 1 day in 24 well plates and stimulated overnight with ODN2006 with or without RTD-1. Medium was harvested and SEAP activity was assayed using Quantiblue™ as above. NF-κB activation was defined as fold stimulation of SEAP activity with respect to control cells.

NF-κB p65 = experiment: NF-κB DNA-binding activity (p65 ELISA) in THP-1 nuclear extracts; format: cell-based, human
Experimental: Nuclear extracts were prepared (nuclear extraction kit; Cayman Chemical Co., Ann Arbor, Mich.) from differentiated THP-1 cells treated for 30 minutes with vehicle, LPS (100 ng/ml) or TNF-α (2 ng/ml) in the presence or absence of 10 μg/ml RTD-1 (SEQ ID NO. 1). NF-κB DNA binding was quantified by p65 ELISA (Cayman Chemical Co.). Non-specific DNA-binding, positive control extract and positive control extract treated with competitor DNA control included with the ELISA were used to confirm specificity of DNA-binding.

THP-1 cells = experiment: Phospho-MAPK phosphoprotein antibody array, THP-1 cells; format: cell-based, human
Experimental: Differentiated THP-1 cells (˜8×10^5 cells/2.5 ml medium) were starved in complete medium containing […] for 1 day as above, and fresh 2.5 ml RPMI 1640+1% FBS+P/S was added for 2 hours. For experiments with fresh monocytes, cells (>80% CD14+) were resuspended (˜10^6 cells/nil) in monocyte attachment medium (Promocell, Heidelberg, Germany) in wells of a 12 well plate for 2 hours at 37° C. in 5% CO2. The cells were then washed two times with RPMI medium containing 1% HI FBS and suspended overnight in RPMI medium containing 1% HI FBS. Cells were stimulated with agonists with or without RTD-1 (SEQ ID NO. 1) as described in the figure legends after which cells were washed with PBS and extracts were prepared in cell lysis buffer+1 mM PMSF. Protein content was determined using the BCA method (BioRad, San Diego, Calif.) and extracts resolved on SDS-tricine gels and transferred to nitrocellulose membrane. The membranes were probed with the indicated antibodies and developed using anti-mouse or anti-rabbit HRP conjugated secondary antibodies and detected by chemiluminescence. A phosphoprotein antibody array (Phospho-MAPK™; R&D systems Minneapolis, Minn.) was used to analyze activation of phosphoprotein kinases. Differentiated THP-1 cells (1.6×10^6 cells) were treated with 100 ng/ml LPS, 10 μg/ml RTD-1 (SEQ ID NO. 1), 100 ng/ml LPS+10 μg/ml RTD-1, or vehicle for 30 minutes. Arrays were probed with 200 μg of cell extract protein and chemiluminescence of spots from arrays or bands from western blotting was quantified using NIH ImageJ software, background subtracted, normalized and plotted.

whole blood = experiment: TNF-α secretion by E. coli stimulated whole blood; format: cell-based
[1] = tested on: peripheral blood leukocytes; conditions: human peripheral blood leukocytes, diverse TLR agonists (Schaal et al 2012); cited from earlier work
[2] = LPS 100 ng/ml, 2 hours, RTD-1 10 μg/ml, THP-1 macrophages
[3] = LPS 100 ng/ml, comparison RTD-1 versus marimastat
[4] = LPS 100 ng/ml + RTD-1 10 μg/ml, 30 minutes

RTD-1: rhesus theta-defensin 1, macrocyclic tri-disulfide θ-defensin peptide, SEQ ID NO. 1, synthetic (cyclo(GFCRCLCRRGVCRCICTR); disulfide (positions not given here); not fully specified (bridges); also: three disulfides, places not given here; listed as Macaca mulatta)
suppression of secretion of IL-1β (THP-1 macrophages; [2]): > 90%
suppression of secretion of IL-8 (THP-1 macrophages; [2]): > 90%
suppression of secretion of TNF-α (THP-1 macrophages; [2]): > 90%
release of TNF-α by LPS-stimulated THP-1 cells (THP-1 macrophages; [3]): blocked both cytokines effectively
secretion of IL-1β by LPS-stimulated THP-1 cells (THP-1 macrophages; [3]): blocked both cytokines effectively
effect on THP-1 cytokine secretion (THP-1 macrophages; RTD-1 alone, no LPS): no effect
dose dependence of inhibition of NF-κB activation (NF-κB; LPS 100 ng/ml, RTD-1 5 and 10 μg/ml): dose dependent
LPS-stimulated NF-κB activation (NF-κB; LPS 100 ng/ml, comparison RTD-1 versus marimastat, RTD-1 in the presence or absence of marimastat): potent inhibitor
suppression of LPS-induced NF-κB activation (NF-κB; LPS 100 ng/ml, simultaneous RTD-1 10 μg/ml, THP-1 Dual cells): ~70%
direct effect on the enzymatic activity of the SEAP reporter (NF-κB; LPS/RTD-1 control): no direct effect
inhibition of Pam3CSK4-induced NF-κB activity (NF-κB; Pam3CSK4 25 ng/ml, RTD-1 10 μg/ml): ~70%
effect on NF-κB activation (NF-κB; RTD-1 alone, no LPS): no effect
NF-κB DNA binding, LPS-stimulated (NF-κB p65; LPS 100 ng/ml, RTD-1 10 μg/ml, 30 minutes): to baseline levels
translocation of NF-κB p65 to the nucleus (NF-κB p65; LPS stimulated macrophages, Western blot of nuclear extracts): inhibit translocation
suppression of TNF-α-stimulated NF-κB DNA binding (NF-κB p65; TNF-α 2 ng/ml, RTD-1 10 μg/ml, 30 minutes, compared with TNF-α alone): ~35%
LPS-induced phosphorylation of CREB (THP-1 cells; [4]): to baseline levels
LPS-induced phosphorylation of ERK2 (THP-1 cells; [4]): to baseline levels
LPS-induced phosphorylation of H5P27 (THP-1 cells; [4]): to baseline levels
LPS-induced phosphorylation of JNK2 (THP-1 cells; [4]): to baseline levels
LPS-induced phosphorylation of p38α (THP-1 cells; [4]): to baseline levels
LPS-induced phosphorylation of p38γ (THP-1 cells; [4]): to baseline levels
phosphorylation of CREB, ERK2, H5P27, JNK2, p38α and p38γ (THP-1 cells; RTD-1 alone): did not suppress
phosphorylation of Akt1 (THP-1 cells; RTD-1 alone or in combination with LPS): selectively stimulated
baseline phosphorylation of other kinase targets (THP-1 cells; RTD-1 alone, otherwise untreated cells): did not increase
speed of blockade of TNF-α secretion (whole blood): extremely rapid
inhibition of cytokine secretion [1]: potent inhibitor
